Reference: BindingDB's records for doi:10.1016/j.bmcl.2004.02.022 (Pfizer, 2004)

Assay: Inhibition of CCL3 induced chemotaxis in human T lymphocytes

| IC50 [nM] | SMILES |
| --- | --- |
| 840 | CNC(=O)[C@H](CC(C)C)C[C@H](O)[C@H](CC1CCCCC1)NC(=O)c1cnc2ccccc2c1 [Quinoline-3-carboxylic acid ((1S,2S,7R)-1-cyclohexylmethyl-2-hydroxy-6-methyl-4-methylcarbamoyl-heptyl)-amide] |
| 440 | CC(C)(F)CCC(C[C@H](O)[C@H](Cc1ccccc1)NC(=O)c1cnc2ccccc2n1)C(=O)NCc1ccccc1 (stereo partly drawn) [Quinoxaline-2-carboxylic acid ((1S,2S)-1-benzyl-4-benzylcarbamoyl-7-fluoro-2-hydroxy-7-methyl-octyl)-amide] |
| 5 | NC(=O)C(C[C@H](O)[C@H](Cc1ccccc1)NC(=O)c1cnc2ccccc2n1)C1CCCCC1 (stereo partly drawn) [Quinoxaline-2-carboxylic acid ((1S,2S)-1-benzyl-4-carbamoyl-4-cyclohexyl-2-hydroxy-butyl)-amide] |
| 130 | CCNC(=O)C(CCC(C)(C)F)C[C@H](O)[C@H](Cc1ccccc1)NC(=O)c1cnc2ccccc2n1 (stereo partly drawn) [Quinoxaline-2-carboxylic acid ((1S,2S)-1-benzyl-4-ethylcarbamoyl-7-fluoro-2-hydroxy-7-methyl-octyl)-amide] |
| 31 | CC(C)(F)CCC(C[C@H](O)[C@H](Cc1ccccc1)NC(=O)c1cnc2ccccc2n1)C(=O)NO (stereo partly drawn) [Quinoxaline-2-carboxylic acid ((1S,2S)-1-benzyl-7-fluoro-2-hydroxy-4-hydroxycarbamoyl-7-methyl-octyl)-amide] |
| 1 | CC(C)(F)CCC(C[C@H](O)[C@H](Cc1ccccc1)NC(=O)c1cnc2ccccc2n1)C(=O)NN (stereo partly drawn) [Quinoxaline-2-carboxylic acid ((1S,2S)-1-benzyl-7-fluoro-4-hydrazinocarbonyl-2-hydroxy-7-methyl-octyl)-amide] |
| 1180 | CC(C)(O)CC[C@H](C[C@H](O)[C@H](Cc1ccccc1)NC(=O)c1cnc2ccccc2n1)C(N)=O [Quinoxaline-2-carboxylic acid ((1S,2S,4R)-1-benzyl-4-carbamoyl-2,7-dihydroxy-7-methyl-octyl)-amide] |
| 2 | CC(C)CC[C@H](C[C@H](O)[C@H](Cc1ccccc1)NC(=O)c1cnc2ccccc2n1)C(N)=O [Quinoxaline-2-carboxylic acid ((1S,2S,4R)-1-benzyl-4-carbamoyl-2-hydroxy-7-methyl-octyl)-amide] |
| 13 | CC(C)(F)CC[C@H](C[C@H](O)[C@H](Cc1ccccc1)NC(=O)c1cnc2ccccc2n1)C(N)=O [Quinoxaline-2-carboxylic acid ((1S,2S,4R)-1-benzyl-4-carbamoyl-7-fluoro-2-hydroxy-7-methyl-octyl)-amide] |
| 8 | O=C(N[C@@H](Cc1ccccc1)[C@@H](O)CC(C(=O)NO)C1CCC(F)(F)CC1)c1cnc2ccccc2n1 (stereo partly drawn) [Quinoxaline-2-carboxylic acid [(1S,2S)-1-benzyl-4-(4,4-difluoro-cyclohexyl)-2-hydroxy-4-hydroxycarbamoyl-butyl]-amide] |
| 120 | NC(=O)C(C[C@H](O)[C@H](Cc1ccccc1)NC(=O)c1cnc2ccccc2n1)C1(O)CCCCC1 (stereo partly drawn) [Quinoxaline-2-carboxylic acid [(1S,2S)-1-benzyl-4-carbamoyl-2-hydroxy-4-(1-hydroxy-cyclohexyl)-butyl]-amide] |
| 12500 | NC(=O)C(C[C@H](O)[C@H](Cc1ccccc1)NC(=O)c1cnc2ccccc2n1)C1CCOCC1 (stereo partly drawn) [Quinoxaline-2-carboxylic acid [(1S,2S)-1-benzyl-4-carbamoyl-2-hydroxy-4-(tetrahydro-pyran-4-yl)-butyl]-amide] |
| 68 | NC(=O)C(C[C@H](O)[C@H](Cc1ccccc1)NC(=O)c1cnc2ccccc2n1)C1(O)CCC(F)(F)CC1 (stereo partly drawn) [Quinoxaline-2-carboxylic acid [(1S,2S)-1-benzyl-4-carbamoyl-4-(4,4-difluoro-1-hydroxy-cyclohexyl)-2-hydroxy-butyl]-amide] |
| 220 | NC(=O)C(C[C@H](O)[C@H](Cc1ccccc1)NC(=O)c1cnc2ccccc2n1)C1CCC(F)(F)CC1 (stereo partly drawn) [Quinoxaline-2-carboxylic acid [(1S,2S)-1-benzyl-4-carbamoyl-4-(4,4-difluoro-cyclohexyl)-2-hydroxy-butyl]-amide] |
| 7050 | CN1CCN(C(=O)C(CCC(C)(C)F)C[C@H](O)[C@H](Cc2ccccc2)NC(=O)c2cnc3ccccc3n2)CC1 (stereo partly drawn) [Quinoxaline-2-carboxylic acid [(1S,2S)-1-benzyl-7-fluoro-2-hydroxy-7-methyl-4-(4-methyl-piperazine-1-carbonyl)-octyl]-amide] |
| 740 | CC(C)(F)CCC(C[C@H](O)[C@H](Cc1ccccc1)NC(=O)c1cnc2ccccc2n1)C(=O)N1CCCC1 (stereo partly drawn) [Quinoxaline-2-carboxylic acid [(1S,2S)-1-benzyl-7-fluoro-2-hydroxy-7-methyl-4-(pyrrolidine-1-carbonyl)-octyl]-amide] |
| 680 | CC(C)(O)CCC(C[C@H](O)[C@H](Cc1ccccc1F)NC(=O)c1cnc2ccccc2n1)C(N)=O (stereo partly drawn) [Quinoxaline-2-carboxylic acid [(1S,2S)-4-carbamoyl-1-(2-fluoro-benzyl)-2,7-dihydroxy-7-methyl-octyl]-amide] |
